Laboratory results: ChEMBL document CHEMBL1156733, “Structure-activity relationship studies on a series of piperazinebenzylalcohols and their ketone and amine analogs as melanocortin-4 receptor ligands” (Bioorg Med Chem Lett, 2008)

Key:
Melanocortin receptor 4 [1] = biological target: T1, Melanocortin receptor 4 (Homo sapiens, UniProt P32245)
Homo sapiens = species on record: Homo sapiens; experiment: Selectivity for human MC4 receptor over human MC4 receptor Asp122Ala mutant
Melanocortin receptor 4 [2] = biological target: Melanocortin receptor 4 (Homo sapiens, UniProt P32245, D122A); experiment: Binding affinity to human MC4 receptor Asp122Ala mutant
Melanocortin receptor 5 = Melanocortin receptor 5 (Homo sapiens, UniProt P33032); experiment: Binding affinity to MC5 receptor
Melanocortin receptor 4 [3] = biological target: T1, Melanocortin receptor 4; experiment: Antagonist activity at human MC4 receptor expressed in cells assessed as inhibition of alpha-MSH-stimulated cAMP production; format: functional, cell-based
Melanocortin receptor 3 = Melanocortin receptor 3 (Homo sapiens, UniProt P41968); experiment: Binding affinity to MC3 receptor
[4] = test system: Melanocortin receptor 1 (Homo sapiens); experiment: Inhibition of human MC1 receptor at 10 uM

Chain of Melanocortin receptor 4 (Homo sapiens, UniProt P32245, D122A) (P32245 whole entry D122A): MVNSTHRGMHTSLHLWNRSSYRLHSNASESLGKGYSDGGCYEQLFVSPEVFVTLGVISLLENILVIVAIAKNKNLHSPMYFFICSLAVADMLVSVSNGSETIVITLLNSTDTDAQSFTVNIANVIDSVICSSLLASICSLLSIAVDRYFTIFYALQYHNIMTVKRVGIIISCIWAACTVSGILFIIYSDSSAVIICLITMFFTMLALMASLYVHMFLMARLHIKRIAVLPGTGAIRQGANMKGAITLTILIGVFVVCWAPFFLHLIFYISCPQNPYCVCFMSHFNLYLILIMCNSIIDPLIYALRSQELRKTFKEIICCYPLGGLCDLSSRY
T1 sequence (P32245 whole entry): as the sequence (P32245 whole entry D122A) above, with A122D counted along it
Chain of Melanocortin receptor 5 (P33032 whole entry): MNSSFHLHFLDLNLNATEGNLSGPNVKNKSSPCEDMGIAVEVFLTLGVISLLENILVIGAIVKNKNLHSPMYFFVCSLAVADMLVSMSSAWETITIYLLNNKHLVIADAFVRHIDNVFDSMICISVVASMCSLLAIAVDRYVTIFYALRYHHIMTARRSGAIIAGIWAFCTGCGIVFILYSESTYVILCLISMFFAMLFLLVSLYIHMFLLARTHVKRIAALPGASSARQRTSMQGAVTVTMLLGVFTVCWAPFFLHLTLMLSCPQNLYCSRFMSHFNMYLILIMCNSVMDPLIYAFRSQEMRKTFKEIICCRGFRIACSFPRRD
Chain of Melanocortin receptor 3 (P41968 whole entry): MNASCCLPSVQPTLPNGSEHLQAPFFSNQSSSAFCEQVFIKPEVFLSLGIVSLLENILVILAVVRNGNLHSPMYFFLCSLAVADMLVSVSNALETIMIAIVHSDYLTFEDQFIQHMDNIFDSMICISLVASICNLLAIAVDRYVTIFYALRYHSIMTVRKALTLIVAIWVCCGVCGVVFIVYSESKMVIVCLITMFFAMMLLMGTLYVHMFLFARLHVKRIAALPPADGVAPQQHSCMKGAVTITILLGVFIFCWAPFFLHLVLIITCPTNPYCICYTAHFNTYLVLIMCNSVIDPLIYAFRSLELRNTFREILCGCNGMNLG

| Structure (SMILES) | Ki (Melanocortin receptor 4 [1]) [nM] | further results |
| --- | --- | --- |
| COc1ccc(CCC(O)c2ccccc2N2CCN(C(=O)[C@@H](Cc3ccc(Cl)cc3Cl)NC(=O)CCN)CC2)cc1 (some centres undefined) | 23 |  |
| CC(C)C[C@H](O)c1ccccc1N1CCN(C(=O)[C@@H](Cc2ccc(Cl)cc2Cl)NC(=O)CN)CC1 | 28 |  |
| CNC(C)(C)C(=O)N[C@H](Cc1ccc(Cl)cc1Cl)C(=O)N1CCN(c2ccccc2C(N)CC(C)C)CC1 (some centres undefined) | 4.7 |  |
| CNCC(=O)N[C@H](Cc1ccc(Cl)cc1Cl)C(=O)N1CCN(c2ccccc2C(O)CC(C)C)CC1 (some centres undefined) | 8.3 | fold change (FC) (Homo sapiens): 60; Ki (Melanocortin receptor 4 [2]): 500 nM; Ki (Melanocortin receptor 5): 1800 nM; IC50 (Melanocortin receptor 4 [3]): 420 nM; Ki (Melanocortin receptor 3): 2500 nM; inhibition [4]: 34% |
| CC(C)CC(=O)c1ccccc1N1CCN(C(=O)[C@@H](Cc2ccc(Cl)cc2Cl)N(CC2CC2)CC2CC2)CC1 | > 10000 |  |
| CC(C)CC(N)c1ccccc1N1CCN(C(=O)[C@@H](Cc2ccc(Cl)cc2Cl)NC(C)C)CC1 (some centres undefined) | 53 |  |
| CCCCCN(CCCCC)[C@H](Cc1ccc(Cl)cc1Cl)C(=O)N1CCN(c2ccccc2C(=O)CC(C)C)CC1 | 5800 |  |
| CCC(O)(CC)c1ccccc1N1CCN(C(=O)[C@@H](Cc2ccc(Cl)cc2Cl)NC(=O)C(C)(C)N)CC1 | 38 |  |
| CCCC(C)(O)c1ccccc1N1CCN(C(=O)[C@@H](Cc2ccc(Cl)cc2Cl)NC(=O)CCN)CC1 (some centres undefined) | 11 |  |
| CNCC(=O)N[C@H](Cc1ccc(Cl)cc1Cl)C(=O)N1CCN(c2ccccc2C(=O)CC(C)C)CC1 | 31 | fold change (FC) (Homo sapiens): 9; Ki (Melanocortin receptor 4 [2]): 290 nM |
| CCC(O)(CC)c1ccccc1N1CCN(C(=O)[C@@H](Cc2ccc(Cl)cc2Cl)NC(=O)[C@@H](C)N)CC1 | 65 |  |
| CC(C)CC(O)c1ccccc1N1CCN(C(=O)[C@@H](Cc2ccc(Cl)cc2Cl)NC(C)C)CC1 (some centres undefined) | 380 |  |
| CC(C)CC(N)c1ccccc1N1CCN(C(=O)[C@@H](Cc2ccc(Cl)cc2Cl)N(Cc2ccccn2)Cc2ccccn2)CC1 (some centres undefined) | 2 |  |
| CC(C)CC(=O)c1ccccc1N1CCN(C(=O)[C@@H](Cc2ccc(Cl)cc2Cl)NCC2CCOC2)CC1 (some centres undefined) | 150 |  |
| CC(C)CC(=O)c1ccccc1N1CCN(C(=O)[C@@H](Cc2ccc(Cl)cc2Cl)NC(=O)C(C)(C)N)CC1 | 110 |  |
| CC(C)CC(O)c1ccccc1N1CCN(C(=O)[C@@H](Cc2ccc(Cl)cc2Cl)NC(=O)C2CCCNC2)CC1 (some centres undefined) | 49 |  |
| CCCCN(CCCC)[C@H](Cc1ccc(Cl)cc1Cl)C(=O)N1CCN(c2ccccc2C(=O)CC(C)C)CC1 | 1700 |  |
| NCCC(=O)N[C@H](Cc1ccc(Cl)cc1Cl)C(=O)N1CCN(c2ccccc2C(O)CCc2ccccc2)CC1 (some centres undefined) | 32 |  |
| CCCCCN(CCCCC)[C@H](Cc1ccc(Cl)cc1Cl)C(=O)N1CCN(c2ccccc2C(O)CC(C)C)CC1 (some centres undefined) | 3200 |  |
| CC(C)CC(O)c1ccccc1N1CCN(C(=O)[C@H](N)Cc2ccc(Cl)cc2Cl)CC1 (some centres undefined) | 280 |  |
| CC(C)CC(O)c1ccccc1N1CCN(C(=O)[C@@H](Cc2ccc(Cl)cc2Cl)N(CC2CC2)CC2CC2)CC1 (some centres undefined) | > 10000 |  |
| CC(C)CC(=O)c1ccccc1N1CCN(C(=O)[C@@H](Cc2ccc(Cl)cc2Cl)N(CC(C)C)CC(C)C)CC1 | > 10000 |  |

| Structure (SMILES) | Ki (Melanocortin receptor 4 [1]) [nM] | further results |
| --- | --- | --- |
| CCCCN(CCCC)[C@H](Cc1ccc(Cl)cc1Cl)C(=O)N1CCN(c2ccccc2C(N)CC(C)C)CC1 (some centres undefined) | 120 |  |
| NCCC(=O)N[C@H](Cc1ccc(Cl)cc1Cl)C(=O)N1CCN(c2ccccc2CO)CC1 | 870 |  |
| CC(C)C(O)c1ccccc1N1CCN(C(=O)[C@@H](Cc2ccc(Cl)cc2Cl)NC(=O)CCN)CC1 (some centres undefined) | 110 |  |
| CC(C)CC(O)c1ccccc1N1CCN(C(=O)[C@@H](Cc2ccc(Cl)cc2Cl)N(CC(C)C)CC(C)C)CC1 (some centres undefined) | > 10000 |  |
| CCC(O)(CC)c1ccccc1N1CCN(C(=O)[C@@H](Cc2ccc(Cl)cc2Cl)NC(=O)CN(C)C)CC1 | 9.4 | Ki (Melanocortin receptor 5): 950 nM; IC50 (Melanocortin receptor 4 [3]): 400 nM; Ki (Melanocortin receptor 3): 3100 nM; inhibition [4]: 34% |
| NCCC(=O)N[C@H](Cc1ccc(Cl)cc1Cl)C(=O)N1CCN(c2ccccc2C(O)Cc2ccccc2)CC1 (some centres undefined) | 54 |  |
| CCCCCN(CCCCC)[C@H](Cc1ccc(Cl)cc1Cl)C(=O)N1CCN(c2ccccc2C(N)CC(C)C)CC1 (some centres undefined) | 350 |  |
| CSCCCN[C@H](Cc1ccc(Cl)cc1Cl)C(=O)N1CCN(c2ccccc2C(=O)CC(C)C)CC1 | 230 |  |
| CC(C)CC(O)c1ccccc1N1CCN(C(=O)[C@@H](Cc2ccc(Cl)cc2Cl)NC(=O)C(C)(C)N)CC1 (some centres undefined) | 46 |  |
| CC(C)CC(O)c1ccccc1N1CCN(C(=O)[C@@H](Cc2ccc(Cl)cc2Cl)N(Cc2ccccn2)Cc2ccccn2)CC1 (some centres undefined) | 83 |  |
| CCC(O)(CC)c1ccccc1N1CCN(C(=O)[C@@H](Cc2ccc(Cl)cc2Cl)NC(=O)NC2CC2)CC1 | 42 |  |
| CCCCN(CCCC)[C@H](Cc1ccc(Cl)cc1Cl)C(=O)N1CCN(c2ccccc2C(O)CC(C)C)CC1 (some centres undefined) | 1400 |  |
| CC(C)CC(=O)c1ccccc1N1CCN(C(=O)[C@@H](Cc2ccc(Cl)cc2Cl)NC(C)C)CC1 | 560 |  |
| CC(C)C[C@@H](O)c1ccccc1N1CCN(C(=O)[C@@H](Cc2ccc(Cl)cc2Cl)NC(=O)CN)CC1 | 9 |  |
| CNCC(=O)N[C@H](Cc1ccc(Cl)cc1Cl)C(=O)N1CCN(c2ccccc2C(N)CC(C)C)CC1 (some centres undefined) | 1.7 | fold change (FC) (Homo sapiens): 58; Ki (Melanocortin receptor 4 [2]): 99 nM |
| CC(C)CC(N)c1ccccc1N1CCN(C(=O)[C@@H](Cc2ccc(Cl)cc2Cl)NC(=O)CN)CC1 (some centres undefined) | 2 |  |
| CSCCCN[C@H](Cc1ccc(Cl)cc1Cl)C(=O)N1CCN(c2ccccc2C(N)CC(C)C)CC1 (some centres undefined) | 21 |  |
| CC(C)CC(O)c1ccccc1N1CCN(C(=O)[C@@H](Cc2ccc(Cl)cc2Cl)NC(=O)CN(C)C)CC1 (some centres undefined) | 9.6 | Ki (Melanocortin receptor 5): 1300 nM; IC50 (Melanocortin receptor 4 [3]): 250 nM; Ki (Melanocortin receptor 3): 3100 nM; inhibition [4]: 36% |
| CC(C)CC(O)c1ccccc1N1CCN(C(=O)[C@@H](Cc2ccc(Cl)cc2Cl)NC(=O)[C@H](C)N)CC1 (some centres undefined) | 16 |  |
| CC(C)CC(N)c1ccccc1N1CCN(C(=O)[C@@H](Cc2ccc(Cl)cc2Cl)N(CC(C)C)CC(C)C)CC1 (some centres undefined) | 1200 |  |
| CC(C)CC(=O)c1ccccc1N1CCN(C(=O)[C@@H](Cc2ccc(Cl)cc2Cl)N(Cc2ccccn2)Cc2ccccn2)CC1 | 110 |  |
| CC(C)CC(=O)c1ccccc1N1CCN(C(=O)[C@@H](Cc2ccc(Cl)cc2Cl)NC(=O)CN)CC1 | 33 |  |

| Structure (SMILES) | Ki (Melanocortin receptor 4 [1]) [nM] | further results |
| --- | --- | --- |
| CCC(O)(CC)c1ccccc1N1CCN(C(=O)[C@@H](Cc2ccc(Cl)cc2Cl)NC(=O)CNC)CC1 | 13 |  |
| CCC(O)(CC)c1ccccc1N1CCN(C(=O)[C@@H](Cc2ccc(Cl)cc2Cl)NC(=O)CCN)CC1 | 11 |  |
| CC(C)CC(N)c1ccccc1N1CCN(C(=O)[C@@H](Cc2ccc(Cl)cc2Cl)NC(=O)C(C)(C)N)CC1 (some centres undefined) | 7.7 |  |
| COc1ccccc1CC(O)c1ccccc1N1CCN(C(=O)[C@@H](Cc2ccc(Cl)cc2Cl)NC(=O)CCN)CC1 (some centres undefined) | 66 |  |
| CCC(O)(CC)c1ccccc1N1CCN(C(=O)[C@@H](Cc2ccc(Cl)cc2Cl)NC(=O)CN)CC1 | 26 |  |
| CCCC(O)c1ccccc1N1CCN(C(=O)[C@@H](Cc2ccc(Cl)cc2Cl)NC(=O)CCN)CC1 (some centres undefined) | 26 |  |
| CC(C)CC(N)c1ccccc1N1CCN(C(=O)[C@@H](Cc2ccc(Cl)cc2Cl)NCC2CCOC2)CC1 (some centres undefined) | 15 |  |
| CC(C)CC(N)c1ccccc1N1CCN(C(=O)[C@@H](Cc2ccc(Cl)cc2Cl)N(CC2CC2)CC2CC2)CC1 (some centres undefined) | 350 |  |
| CCOC(=O)[C@H]1CCCC[C@@H]1N1CCN(C(=O)[C@@H](Cc2ccc(Cl)cc2Cl)NC(=O)CCN)CC1 | 6.3 |  |
| CC(C)CC(O)c1ccccc1N1CCN(C(=O)[C@@H](Cc2ccc(Cl)cc2Cl)NCC2CCOC2)CC1 (some centres undefined) | 89 |  |
| CCC(C)C(O)c1ccccc1N1CCN(C(=O)[C@@H](Cc2ccc(Cl)cc2Cl)NC(=O)CCN)CC1 (some centres undefined) | 47 |  |
| COc1cccc(CC(O)c2ccccc2N2CCN(C(=O)[C@@H](Cc3ccc(Cl)cc3Cl)NC(=O)CCN)CC2)c1 (some centres undefined) | 66 |  |
| CC(C)CC(O)c1ccccc1N1CCN(C(=O)[C@@H](Cc2ccc(Cl)cc2Cl)NC(=O)CN)CC1 (some centres undefined) | 13 |  |
| CCC(O)(CC)c1ccccc1N1CCN(C(=O)[C@@H](Cc2ccc(Cl)cc2Cl)NC(=O)[C@H](C)N)CC1 | 18 |  |
| CCC(O)(CC)c1ccccc1N1CCN(C(=O)[C@@H](Cc2ccc(Cl)cc2Cl)NC(=O)OC(C)(C)C)CC1 | 390 |  |
| CNC(C)(C)C(=O)N[C@H](Cc1ccc(Cl)cc1Cl)C(=O)N1CCN(c2ccccc2C(O)CC(C)C)CC1 (some centres undefined) | 21 |  |
| CC(C)CC(N)c1ccccc1N1CCN(C(=O)[C@@H](Cc2ccc(Cl)cc2Cl)NC(=O)[C@H](C)N)CC1 (some centres undefined) | 4.2 |  |
| CC(C)CC(=O)c1ccccc1N1CCN(C(=O)[C@@H](Cc2ccc(Cl)cc2Cl)NC(=O)[C@H](C)N)CC1 | 26 |  |
| CSCCCN[C@H](Cc1ccc(Cl)cc1Cl)C(=O)N1CCN(c2ccccc2C(O)CC(C)C)CC1 (some centres undefined) | 330 |  |
| CNC(C)(C)C(=O)N[C@H](Cc1ccc(Cl)cc1Cl)C(=O)N1CCN(c2ccccc2C(=O)CC(C)C)CC1 | 91 |  |
| CCC(O)(CC)c1ccccc1N1CCN(C(=O)[C@@H](Cc2ccc(Cl)cc2Cl)NC(=O)N2CCCC2=O)CC1 | 110 |  |
| C=CC(C)C(O)c1ccccc1N1CCN(C(=O)[C@@H](Cc2ccc(Cl)cc2Cl)NC(=O)CCN)CC1 (some centres undefined) | 29 |  |
